# Columns and labels:
# [1] = test system: Caenorhabditis elegans; conditions: prior art literature; cited from earlier work
# [2] = test system: Caenorhabditis elegans; experiment: Caenorhabditis elegans lifespan analysis; assay type: in vivo; conditions: 200 μM spermidine alone, 10 μM resveratrol alone, or both combined; FIG. 1a
# Protocol: According to an embodiment of the present invention, i.e., a method for selecting a composition having anti-aging properties, step 1 of the method is to confirm the life-span enhancing effect of the composition by using Caenorhabditis elegans lifespan analysis. For chemical treatment in Caenorhabditis elegans, four batches of chemical with different ingredients and content were added to the nematode growth medium (NGM) dishes. The NGM with agarose was autoclaved and then cooled down to below 65° C. The NGM was then poured into 60 mm dishes and incubated at room temperature overnight. The solidified NGM dishes were stored at 4° C. Escherichia coli OP50 strain was used as the food source for C. elegans. A single colony of OP50 was incubated in 200 mL of lysogeny broth (LB) medium at 37° C. overnight. The OP50 was then killed by incubation at 65° C. for 30 minutes. The dead OP50 was spread throughout the surface of the NGM dishes. The NGM dishes with dead OP50 were stored at 4° C. for up to 2 weeks. The synchronization of C. elegans was carried out by the bleaching method. 20 L4 larvae were picked to each 60 mm dish with different chemical treatment and cultured at 20° C. They were monitored every day, and the number of living, dead and missing C. elegans were recorded. […]
# [3] = test system: human bone marrow mesenchymal stem cells (MSCs); experiment: human bone marrow mesenchymal stem cell viability assay (MTS); assay type: cell-based; conditions: 2 days treatment; FIG. 4
# Protocol: Firstly, cells were cultured in 96-well plate and CellTiter 96® AQueous One Solution Cell Proliferation Assay (MTS) was used to carry out the cell viability assay. For human mesenchymal stem cells (MSCs), they were seeded and cultured in 96-well plate and treated with control, resveratrol, spermidine or combined treatment for 2 days. Human bone marrow mesenchymal stem cells (MSCs) were treated with four batches of chemical having different ingredients and concentrations of spermidine and resveratrol for two days under identical experimental conditions. The ingredients and concentrations of spermidine and resveratrol of the four different chemicals are: control blank, spermidine alone, resveratrol alone, and a combined use of spermidine and resveratrol.
Structure (SMILES),effective concentration to extend the lifespan of Caenorhabditis elegans [1],life span of Caenorhabditis elegans [2],cell viability of human bone marrow MSCs [3]
"Oc1ccc(C=Cc2cc(O)cc(O)c2)cc1 [resveratrol, 3,5,4′-trihydroxystilbene]",100 µM,higher than that of the control blank,can enhance cell viability
NCCCCNCCCN [spermidine],200 µM,higher than that of the control blank,can enhance cell viability
